Results from ChEMBL document CHEMBL1154948, “Carbonic anhydrase inhibitors. Inhibition of transmembrane isoforms IX, XII, and XIV with less investigated anions including trithiocarbonate and dithiocarbamate” (Bioorg Med Chem Lett, 2010).

How the values were obtained:
[1] = target: Carbonic anhydrase 9 (Homo sapiens) (UniProt Q16790); test: Inhibition of human recombinant CA9 by stopped flow CO2 hydration assay
[2] = target: Carbonic anhydrase 12 (Homo sapiens) (UniProt O43570)
[3] = target: Carbonic anhydrase 14 (Homo sapiens) (UniProt Q9ULX7)
Carbonic anhydrase 14 (Homo sapiens), sequence (Q9ULX7 whole entry): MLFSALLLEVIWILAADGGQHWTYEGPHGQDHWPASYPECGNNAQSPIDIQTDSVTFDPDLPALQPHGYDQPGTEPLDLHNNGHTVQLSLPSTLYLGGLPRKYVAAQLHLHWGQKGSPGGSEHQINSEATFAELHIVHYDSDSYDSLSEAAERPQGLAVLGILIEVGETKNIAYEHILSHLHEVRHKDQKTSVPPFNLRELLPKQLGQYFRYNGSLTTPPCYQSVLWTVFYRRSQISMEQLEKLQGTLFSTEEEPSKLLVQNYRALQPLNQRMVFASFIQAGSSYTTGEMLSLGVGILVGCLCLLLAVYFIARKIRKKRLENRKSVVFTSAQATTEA
Description: Inhibition of human recombinant CA14 by stopped flow CO2 hydration assay

Carbonic anhydrase 12 (Homo sapiens), sequence (O43570 whole entry): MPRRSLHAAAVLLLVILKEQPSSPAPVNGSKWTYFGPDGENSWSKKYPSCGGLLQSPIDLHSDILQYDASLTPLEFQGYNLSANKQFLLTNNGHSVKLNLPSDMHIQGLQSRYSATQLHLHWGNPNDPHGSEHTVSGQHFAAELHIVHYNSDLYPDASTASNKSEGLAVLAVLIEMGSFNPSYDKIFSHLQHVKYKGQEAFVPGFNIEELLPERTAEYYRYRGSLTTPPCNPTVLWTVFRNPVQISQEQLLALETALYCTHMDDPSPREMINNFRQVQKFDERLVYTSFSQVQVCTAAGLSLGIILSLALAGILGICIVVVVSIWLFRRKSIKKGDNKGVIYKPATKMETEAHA

With SODIUM DIOXIDOTRIOXOOSMIUM as the compound, how does the Kinact [1] read?
Its Kinact is 184 mM.

And the Kinact [2]?
Its Kinact is 130 mM.

And the Kinact [3]?
Its Kinact is 72.5 mM.

O=P(O)(O)OP(=O)(O)O was tested. Which Kinact [1] did it give?
Its Kinact is 46.3 mM.

What about the Kinact [2] of the same compound?
Its Kinact is 63.9 mM.

What about the Kinact [3] of the same compound?
Its Kinact is 0.76 mM.

Which results are given for CCN(CC)C(=S)S?
Kinact [1]: 0.0014 mM; Kinact [2]: 0.0011 mM; Kinact [3]: 0.001 mM

For O=[Se](=O)(O)O, which Kinact [1] is on record?
The Kinact was 183 mM.

And the Kinact [2]?
The Kinact was 138 mM.

And the Kinact [3]?
The Kinact was 49.6 mM.

How did the Kinact [2] turn out when SODIUM STANNATE was run?
The Kinact was 1.02 mM.
